# According to patent US9844535B2, “SHP2 inhibitors and methods of treating autoimmune and/or glomerulonephritis-associated diseases using SHP2 inhibitors” (Indiana University Research and Technology Corporation, priority 2013, dated 2017):
# Tests used:
# ERK and AKT signaling = assay: Immunoblot of ERK/AKT signaling in tissue lysates of inhibitor-treated MRL/lpr mice; assay type: in vivo, mouse; details: 7.5 mg/kg daily for 4 weeks
# Protocol: Briefly, female MRL/MpJ-fas lpr (MRL/lpr), MRL/Mpj and C57BL/6J mice were purchased from the Jackson Laboratory (Bar Harbor, Me.). For experiments, mice within each group were ip injected with either vehicle (DMSO) or the SHP2 inhibitor (7.5 mg/kg/per day). […] Body weight was measured daily and treatment dosage was adjusted accordingly. At the end of the treatment period, mice were sacrificed with CO2 exsanguination and SLE targeted organs were removed. For each mouse, spleen, kidney, and heart weight were calculated. In addition, total animal body weight and tibia length were measured. Peripheral blood/serum was also collected for use in the cytokine assays described below.
# Tissues (spleen, kidney, heart) isolated from either vehicle (DMSO) treated or SHP2 inhibitor treated WT C57/B16, MRL/MpJ, or MRL/lpr female mice were dissected, perfused in PBS, and immediately frozen in liquid N2. Whole-cell lysates were prepared by homogenizing the tissue in radioimmunoprecipitation (RIPA) buffer (25 mmol/l Tris-HCl [pH 7.4], 150 mmol/l NaCl, 0.1% SDS, 1% NP-40, 0.5% sodium deoxycholate, 5 mmol/l EDTA, 1 mmol/l NaF, 1 mmol/l sodium orthovanadate, and a protease cocktail) at 4° C., followed by clarification at 14,000 g. […] Bands were visualized with enhanced chemiluminescence and quantified by densitometry (developed by Wayne Rasband; ImageJ 1.41 software, http://rsbweb.nih.gov/ij/). […]
# [1] = tested on: human T cells isolated from SLE patients; assay: Cultured human SLE T cells: IFNγ secretion, proliferation, viability; assay type: cell-based
# Source text: All SLE human cells in the following Examples were isolated from SLE patients diagnosed according to the American College of Rheumatology classification criteria and recruited from the Division of Rheumatology at Beth Israel Deaconess Medical Center, Boston, Mass. under IRB protocol 2006-P-0298. Healthy gender- and age-matched control cells were also used for the Examples herein. Briefly, peripheral venous blood was collected in heparin-lithium tubes and peripheral blood mononuclear cells were prepared with ficoll-Paque centrifugation, as previously described in Grammatikos et al., Clin Immunol. 2014; 150: 192-200.
# Human T cells were purified from frozen peripheral blood mononuclear cells (PBMC) isolated from SLE or normal donor patients. Briefly, frozen PBMCs were thawed in a 37° C. water bath for 1 to 2 minutes, and then gently added to pre-warmed RPMI1640 medium with 10% FBS (total 10 ml). The cells were centrifuged at 2000 rpm for 5 minutes at room temperature. The cell pellet was washed with 5 ml of pre-warmed RPMI 1640 medium with 10% FBS three times, followed by a final D-PBS (no calcium, no magnesium buffer) wash. Human T cells were then purified by a Pan T Cell Isolation Kit (human) from Miltenyi Biotec, as described above.
# The purity of isolated T cells routinely exceeded 94%. After purification, T cells were resuspended in RPMI1640 medium with 10% FBS and 1×10^5 cells/well in 100 ul total volume was loaded onto a 96-well plate, either left uncoated or precoated with anti-CD3 antibody (1 ug/ml) (OKT3; Biolegend). […]
# For cell viability, an MTT (thiazolyl Blue tetrazolium Bromide, M2128, Sigma, St. Louis, Mo.) assay was employed. […] Spectrophotometric absorbance of the samples was assessed using a microplate reader at a wavelength of 595 nm. T cell numbers/proliferation was assessed by cell count using a hemocytometer. […] After mixing, 10 μl of the mixture was loaded onto the hemocytometer and the total average number of cells/well was calculated. […]
structure (smiles),measurement,setting,value
Cn1c(-c2cccc(NC(=O)C(=O)Nc3ccc(-c4ccsc4)cc3)c2)c(I)c2cc(C(=O)O)c(O)cc21 [11a-1],downstream ERK and AKT signaling in tissue lysates,ERK and AKT signaling,reversed aberrant downstream ERK and AKT signaling
same,T cell viability,[1]; human SLE T cell cultures,no differences in viability
same,T cell proliferation in response to CD3,"[1]; human SLE T cells, 48 hours, 10 μg/ml",reduced T cell proliferation
same,secretion of IFNγ in response to T cell activation,"[1]; human SLE T cells, CD3 antibody, 48 hours, 10 μg/ml",significantly decreased the secretion of IFNγ activity
